pIC50: −log10 of the molar value.
How the values were obtained:
Assay type in all cases: cell-based
[1] = molecular target: T1, mouse P2X4 receptors (Mus musculus, UniProt Q9JJX6); test: Assay B: mouse P2X4 receptor cell line, Fluo8 fluorescence FLIPR (agonist Bz-ATP at EC50); details: HEK mouse P2X4 cell line, agonist Bz-ATP at EC50, average
T1 construct: host or cells: HEK 293 (recombinant, constitutively expressing)
T1 sequence (Q9JJX6 1-388): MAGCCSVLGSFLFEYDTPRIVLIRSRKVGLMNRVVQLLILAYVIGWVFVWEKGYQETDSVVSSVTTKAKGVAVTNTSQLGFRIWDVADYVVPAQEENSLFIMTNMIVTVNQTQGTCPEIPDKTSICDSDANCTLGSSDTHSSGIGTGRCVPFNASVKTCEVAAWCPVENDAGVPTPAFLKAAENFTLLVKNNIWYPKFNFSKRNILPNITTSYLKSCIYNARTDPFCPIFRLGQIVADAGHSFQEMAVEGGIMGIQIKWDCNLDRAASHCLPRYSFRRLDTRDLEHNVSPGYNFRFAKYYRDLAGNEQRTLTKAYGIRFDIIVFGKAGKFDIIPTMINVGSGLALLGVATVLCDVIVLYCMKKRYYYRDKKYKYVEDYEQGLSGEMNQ
Description: The identification of agonists and antagonists of the P2X4 receptor from humans and […] also the quantification of the activity of the compounds of the invention was performed by use of recombinant cell lines. […] The test cell lines constitutively express the mouse or human P2X4 receptors. Stimulation of the receptors with an agonist leads to a conformational change of P2X4 and influx of extracellular calcium ions through the ion channel. The cytoplasmatic calcium transient is detected via the calcium sensitive dye Fluo8 for the mouse P2×4 cell line or in case of the human P2×4 cell line a stably expressed calcium-sensitive photoprotein, mitochondrial photina, which, after reconstitution with the cofactor coelenterazine, emits light in dependence of calcium binding [Bovolenta S, Foti M, Lohmer S, Corazza S., J Biomol Screen. […] The strength of Fluo8 fluorescence signal or photina luminescence signal corresponds to the level of receptor activation. An inhibitor would decrease the signal depending on its potency and concentration.
On the day of the assay medium is exchanged by Fluo8 containing buffer for 30 minutes. In the fluorescence reader (FLIPR) test substances in various concentrations are added for 10 minutes. After baseline measurement the agonist Bz-ATP at EC50 concentration is applied and fluorescence is measured immediately.

[2] = molecular target: T2, P2X4 (Homo sapiens, UniProt Q99571); test: Assay A: human P2X4 receptor cell line, FLIPR calcium assay (Fluo-8, agonist Bz-ATP at EC80); design: host or cells: HEK 293 (recombinant, constitutively expressing; with mitochondrial photina in Assay B); details: for pIC50: Bz-ATP at EC80, average values; for Emax: read-out: human P2X4 Assay A avg Efficacy
T2 sequence (Q99571 1-388): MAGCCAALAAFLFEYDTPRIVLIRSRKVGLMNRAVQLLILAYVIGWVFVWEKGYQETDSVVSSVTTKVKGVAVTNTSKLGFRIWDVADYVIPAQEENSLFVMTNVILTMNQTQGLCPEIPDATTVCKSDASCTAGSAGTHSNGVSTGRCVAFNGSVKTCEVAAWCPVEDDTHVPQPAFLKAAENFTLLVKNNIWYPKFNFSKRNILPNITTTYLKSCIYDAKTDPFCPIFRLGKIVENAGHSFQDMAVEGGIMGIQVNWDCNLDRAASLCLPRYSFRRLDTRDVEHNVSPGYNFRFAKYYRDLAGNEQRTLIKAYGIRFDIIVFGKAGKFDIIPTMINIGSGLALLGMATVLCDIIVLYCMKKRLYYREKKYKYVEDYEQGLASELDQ
Method in brief: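 Antagonism read as inhibition of the calcium response to EC80 Bz-ATP, by peak-over-basal Fluo-8 fluorescence over 120 s, normalized to DMSO wells. Human P2X4-HEK cells, dye-loaded 30 min in probenecid-containing HBSS/HEPES pH 7.4, received compound 30 min beforehand at room temperature, 0.5% DMSO final. Triplicates fitted for IC50, maximal inhibition and Hill slope.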

[3] = molecular target: T2, P2X4; test: Assay B: human P2X4 receptor cell line, mitochondrial photina luminescence (agonist Bz-ATP at EC50); design: host or cells: HEK 293 (recombinant, constitutively expressing; with mitochondrial photina in Assay B); details: for Emax: read-out: human P2X4 Assay B avg Efficacy
Method in brief: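 Bz-ATP at its EC50 activates human P2X4 stably expressed in a cell line that also carries the calcium-sensitive photoprotein mitochondrial photina (coelenterazine cofactor). Light emitted on calcium influx is measured straight away in a luminometer. Reduced luminescence indicates antagonism.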

[4] = HEK human P2X4 cells, Fluo-8 FLIPR
[5] = percentage of maximal inhibition, HEK human P2X4 cells, Fluo-8 FLIPR
[6] = HEK human P2X4 cell line, photina luminescence, agonist Bz-ATP at EC50, average

SMILES | mouse P2X4 Assay B avg Efficacy [1] [%] | pIC50 [2, 4] | Emax [2, 5] [%] | pIC50 [3, 6] | Emax [3, 6] [%] | Emax [2] [%] | Emax [3] [%]
NS(=O)(=O)c1cc(NC(=O)Cc2ccccc2Cl)ccc1Oc1cncc(Cl)c1 [Example 029, 2-(2-Chlorophenyl)-N-{4-[(5-chloropyridin-3-yl)oxy]-3-sulfamoylphenyl}acetamide] | 50 | – | – | – | – | – | –
NS(=O)(=O)c1cc(NC(=O)Cc2c(F)cccc2Cl)ccc1Oc1cccc(Cl)c1 [Example 100, 2-(2-Chloro-6-fluorophenyl)-N-[4-(3-chlorophenoxy)-3-sulfamoylphenyl]acetamide] | 43 | – | – | – | – | – | –
NS(=O)(=O)c1cc(NC(=O)Cc2ccccc2Cl)ccc1Oc1cccc(N2CCCCC2=O)c1 [Example 176, 2-(2-Chlorophenyl)-N-{4-[3-(2-oxopiperidin-1-yl)phenoxy]-3-sulfamoylphenyl}acetamide] | – | 6.34 | 82 | 6.06 | 53 | – | –
C=C(C)c1cccc(Oc2ccc(NC(=O)Cc3ccccc3Cl)cc2S(N)(=O)=O)c1 [Example 177, 2-(2-Chlorophenyl)-N-{4-[3-(prop-1-en-2-yl)phenoxy]-3-sulfamoylphenyl}acetamide] | – | 6.58 | 80 | 6.01 | 69 | – | –
C=C(C)c1ccccc1Oc1ccc(NC(=O)Cc2ccccc2Cl)cc1S(N)(=O)=O [Example 178, 2-(2-Chlorophenyl)-N-{4-[2-(prop-1-en-2-yl)phenoxy]-3-sulfamoylphenyl}acetamide] | – | 6.41 | 76 | 6.31 | 56 | – | –
Cc1ccc(CC(=O)Nc2ccc(Oc3cccc(Cl)c3)c(S(N)(=O)=O)c2)cc1 [Example 179, N-[4-(3-Chlorophenoxy)-3-sulfamoylphenyl]-2-(4-methylphenyl)acetamide] | – | – | 69 | – | 65 | – | –
NS(=O)(=O)c1cc(NC(=O)Cc2ccc(Cl)cc2)ccc1Oc1cccc(Cl)c1 [Example 180, N-[4-(3-Chlorophenoxy)-3-sulfamoylphenyl]-2-(4-chlorophenyl)acetamide] | – | – | 76 | – | 63 | – | –
NS(=O)(=O)c1cc(NC(=O)Cc2ccccc2Cl)ccc1Oc1cccc(Cl)c1 [Example 187, N-[4-(3-Chlorophenoxy)-3-sulfamoylphenyl]-2-(2-chlorophenyl)acetamide] | 41 | – | – | – | – | – | –
COc1cccc(CC(=O)Nc2ccc(Oc3cccc(Cl)c3)c(S(N)(=O)=O)c2)c1 [Example 191, N-[4-(3-Chlorophenoxy)-3-sulfamoylphenyl]-2-(3-methoxyphenyl)acetamide] | – | 7.30 | 85 | 6.83 | 72 | – | –
COc1ccccc1CC(=O)Nc1ccc(Oc2cccc(Cl)c2)c(S(N)(=O)=O)c1 [Example 192, N-[4-(3-Chlorophenoxy)-3-sulfamoylphenyl]-2-(2-methoxyphenyl)acetamide] | – | – | 86 | – | 68 | – | –
CC(C(=O)Nc1ccc(Oc2cccc(Cl)c2)c(S(N)(=O)=O)c1)c1ccccc1Cl (stereo not drawn) [Example 196, N-[4-(3-Chlorophenoxy)-3-sulfamoylphenyl]-2-(2-chlorophenyl)propanamide] | – | – | – | – | – | 82 | 71
NS(=O)(=O)c1cc(NC(=O)Cc2ccccc2F)ccc1OCC1CCOCC1 [Example 279, 2-(2-Fluorophenyl)-N-[3-sulfamoyl-4-(tetrahydro-2H-pyran-4-ylmethoxy)phenyl]acetamide] | – | – | – | – | – | 61 | 85

The next lines start with results.

mouse P2X4 Assay B avg Efficacy [1] [%] | pIC50 [2, 4] | Emax [2, 5] [%] | pIC50 [3, 6] | Emax [3, 6] [%] | SMILES | Emax [2] [%] | Emax [3] [%]
– | – | 86 | – | 83 | NS(=O)(=O)c1cc(NC(=O)Cc2ccccc2Cl)ccc1OC1CCCCC1 [Example 200, 2-(2-Chlorophenyl)-N-[4-(cyclohexyloxy)-3-sulfamoylphenyl]acetamide] | – | –
– | 7.42 | 87 | 6.26 | 67 | COCCN(C)C(=O)c1cccc(CC(=O)Nc2ccc(Oc3cccc(Cl)c3)c(S(N)(=O)=O)c2)c1 [Example 208, 3-(2-{[4-(3-Chlorophenoxy)-3-sulfamoylphenyl]amino}-2-oxoethyl)-N-(2-methoxyethyl)-N-methylbenzamide] | – | –
– | 6.46 | 78 | 6.21 | 61 | N#Cc1ccc(CC(=O)Nc2ccc(Oc3cccc(Cl)c3)c(S(N)(=O)=O)c2)cc1 [Example 224, N-[4-(3-Chlorophenoxy)-3-sulfamoylphenyl]-2-(4-cyanophenyl)acetamide] | – | –
– | 6.28 | 62 | 6.92 | 46 | NS(=O)(=O)c1cc(NC(=O)Cc2ccc(F)cc2Cl)ccc1Oc1ccc(Cl)cc1 [Example 231, 2-(2-Chloro-4-fluorophenyl)-N-[4-(4-chlorophenoxy)-3-sulfamoylphenyl]acetamide] | – | –
– | – | 70 | – | 79 | Cn1cc(Oc2ccc(NC(=O)Cc3ccccc3Cl)cc2S(N)(=O)=O)cn1 [Example 233, 2-(2-Chlorophenyl)-N-{4-[(1-methyl-1H-pyrazol-4-yl)oxy]-3-sulfamoylphenyl}acetamide] | – | –
– | 6.25 | 73 | 6.16 | 43 | NS(=O)(=O)c1cc(NC(=O)Cc2ccc(C(F)F)cc2)ccc1Oc1ccc(Cl)cc1 [Example 234, N-[4-(4-Chlorophenoxy)-3-sulfamoylphenyl]-2-[4-(difluoromethyl)phenyl]acetamide] | – | –
– | 6.33 | 79 | 6.10 | 69 | COc1ccc(CC(=O)Nc2ccc(Oc3ccc(Cl)cc3)c(S(N)(=O)=O)c2)c(Cl)c1 [Example 235, 2-(2-Chloro-4-methoxyphenyl)-N-[4-(4-chlorophenoxy)-3-sulfamoylphenyl]acetamide] | – | –
– | – | 62 | – | 80 | CC(C)(O)c1ccc(Oc2ccc(NC(=O)Cc3ccccc3Cl)cc2S(N)(=O)=O)cc1 [Example 264, 2-(2-Chlorophenyl)-N-{4-[4-(2-hydroxypropan-2-yl)phenoxy]-3-sulfamoylphenyl}acetamide] | – | –
– | < 4.60 | 37 | < 4.30 | 14 | CC1(C)CC(Oc2ccc(NC(=O)Cc3ccccc3Cl)cc2S(N)(=O)=O)CC(C)(C)O1 [Example 269, 2-(2-Chlorophenyl)-N-{3-sulfamoyl-4-[(2,2,6,6-tetramethyltetrahydro-2H-pyran-4-yl)oxy]phenyl}acetamide] | – | –
– | – | 104 | – | 64 | CC(C)(O)c1cccc(Oc2ccc(NC(=O)Cc3ccccc3Cl)cc2S(N)(=O)=O)c1 [Example 274, 2-(2-Chlorophenyl)-N-{4-[3-(2-hydroxypropan-2-yl)phenoxy]-3-sulfamoylphenyl}acetamide] | – | –
44 | – | – | – | – | CC(C)(O)c1ccccc1Oc1ccc(NC(=O)Cc2ccccc2Cl)cc1S(N)(=O)=O [Example 275, 2-(2-Chlorophenyl)-N-{4-[2-(2-hydroxypropan-2-yl)phenoxy]-3-sulfamoylphenyl}acetamide] | – | –
– | 6.86 | 82 | 6.74 | 65 | NS(=O)(=O)c1cc(NC(=O)Cc2c(Cl)ccc3c2CCO3)ccc1Oc1cccc(Cl)c1 [Example 278, 2-(5-Chloro-2,3-dihydro-1-benzofuran-4-yl)-N-[4-(3-chlorophenoxy)-3-sulfamoylphenyl]acetamide] | – | –

Source: US20180338980A1, “AROMATIC SULFONAMIDE DERIVATIVES” (BAYER PHARMA AKTIENGESELLSCHAFT, priority 2015, published 2018)
